Read-outs that look alike come from different tables or passages of the source.
Assays:
[1] = target: BTK enzyme (recombinant full-length BTK, hBTK) (Homo sapiens (Human), UniProt Q06187); experiment: Btk enzyme activity assay, LANCE TR-FRET; assay type: biochemical; conditions: 50 pM hBTK, 2 μM biotin-A5-peptide, 25 μM ATP; 60 minute compound & enzyme incubation; read-out: BTK binding IC50
Experimental: Btk Enzyme Activity Assay Methods
BTK enzymatic activity was determined with the LANCE (Lanthanide Chelate Excite) TR-FRET (Time-resolved fluorescence resonance energy transfer) assay. […] After 60 minutes incubation with detection reagents, reaction plates were read on a PerkinElmer EnVision plate reader using standard TR-FRET protocol.

HeLa cells = experiment: [3H] Adenosine uptake assay; assay type: cell-based; conditions: accumulation of tritiated adenosine into HeLa cells, compound concentration range 10 μM to 0.032 nM, read-out: ADU inhibition IC50 (adenosine uptake inhibition potency)
Procedure, shortened: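 Accumulation of tritiated adenosine in adherent HeLa cells, detected by scintillant-plate coincidence counting, gives IC50 via 4-parameter robust fit. Compound (constant 0.25% DMSO) applied 30 min ahead, then 60 min radiolabel exposure (added from 500 nM solution), ambient conditions, HBSS with 5% FBS.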

BTK enzyme (recombinant full-length BTK, hBTK), sequence (Q06187 whole entry): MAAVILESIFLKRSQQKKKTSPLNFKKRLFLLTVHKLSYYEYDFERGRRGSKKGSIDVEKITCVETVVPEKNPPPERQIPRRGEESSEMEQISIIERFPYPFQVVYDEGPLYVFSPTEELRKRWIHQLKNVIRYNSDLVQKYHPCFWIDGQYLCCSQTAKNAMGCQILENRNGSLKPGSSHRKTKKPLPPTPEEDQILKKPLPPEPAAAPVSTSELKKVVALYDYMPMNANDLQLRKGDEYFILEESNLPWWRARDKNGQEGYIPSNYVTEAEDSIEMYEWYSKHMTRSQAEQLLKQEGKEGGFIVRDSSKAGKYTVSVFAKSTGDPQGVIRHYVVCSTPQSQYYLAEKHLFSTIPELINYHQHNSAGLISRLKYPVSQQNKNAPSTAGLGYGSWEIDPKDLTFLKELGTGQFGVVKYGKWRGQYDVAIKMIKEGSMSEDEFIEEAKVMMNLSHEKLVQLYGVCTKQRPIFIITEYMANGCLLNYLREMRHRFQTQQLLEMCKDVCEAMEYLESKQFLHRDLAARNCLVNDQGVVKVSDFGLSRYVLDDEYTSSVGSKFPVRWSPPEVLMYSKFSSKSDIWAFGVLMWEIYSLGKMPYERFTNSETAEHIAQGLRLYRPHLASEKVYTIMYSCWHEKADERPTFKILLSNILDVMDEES

Structure (SMILES)	IC50 [1]	IC50 (HeLa cells; Homo sapiens, HeLa)	IC50 (HeLa cells)
CC1(C)[C@H](c2nc(-c3ccc(C(=O)Nc4cc(C(F)(F)F)ccn4)cc3)c3c(N)nccn23)CC[C@]1(C)C(=O)O [Example 69, (1S,3R)-3-[8-amino-1-(4-{[4-(trifluoromethyl)pyridin-2-yl]carbamoyl}phenyl)imidazo[1,5-a]pyrazin-3-yl]-1,2,2-trimethylcyclopentane carboxylic acid]	0.37 nM	1080 nM	
CCOc1cc(C(=O)Nc2cc(C(F)(F)F)ccn2)ccc1-c1nc(C23C4C5C2C2C3C4C52C(=O)O)n2ccnc(N)c12 (stereo not shown) [Example 71, 4-(8-amino-1-(2-ethoxy-4-((4-(trifluoromethyl)pyridin-2-yl)carbamoyl)phenyl)imidazo[1,5-a]pyrazin-3-yl)cubane-1-carboxylic acid]	0.65 nM	2470 nM	
CCOc1cc(C(=O)Nc2cc(C(F)(F)F)ccn2)ccc1-c1nc([C@H]2CC[C@@](C)(C(=O)O)C2(C)C)n2ccnc(N)c12 [Example 72, (1R,3S)-3-[8-amino-1-(2-ethoxy-4-{[4-(trifluoromethyl)pyridin-2-yl]carbamoyl}phenyl)imidazo[1,5-a]pyrazin-3-yl]-1,2,2-trimethylcyclopentane carboxylic acid]	0.61 nM	3200 nM	
CCOc1cc(C(=O)Nc2cc(C(F)(F)F)ccn2)ccc1-c1nc([C@]23CC[C@](C(=O)O)(CC2O)C(O)C3)n2ccnc(N)c12 (stereo partly drawn) [Example 73, (1S,4R)-4-[8-amino-1-(2-ethoxy-4-{[4-(trifluoromethyl)pyridin-2-yl]carbamoyl}phenyl)imidazo[1,5-a]pyrazin-3-yl]-2,5-dihydroxybicyclo [2.2.2]octane-1-carboxylic acid]	8.8 nM	3650 nM	
Nc1nccn2c(C34C5C6C3C3C4C5C63C(=O)O)nc(-c3ccc(C(=O)Nc4cc(C5CC5)ccn4)cc3F)c12 (stereo not shown) [Example 74, 4-(8-amino-1-(4-((4-cyclopropylpyridin-2-yl)carbamoyl)-2-fluorophenyl)imidazo [1,5-a]pyrazin-3-yl)cubane-1-carboxylic acid]	0.54 nM	113 nM	
COc1cc(C(=O)Nc2cc(C(F)(F)F)ccn2)ccc1-c1nc(C23C4C5C2C2C3C4C52C(=O)O)n2ccnc(N)c12 (stereo not shown) [Example 75, 4-(8-amino-1-(2-methoxy-4-((4-(trifluoromethyl)pyridin-2-yl)carbamoyl)phenyl)imidazo[1,5-a]pyrazin-3-yl)cubane-1-carboxylic acid]	0.56 nM	742 nM	
N#Cc1ccnc(NC(=O)c2ccc(-c3nc(C45C6C7C4C4C5C6C74C(=O)O)n4ccnc(N)c34)c(F)c2)c1 (stereo not shown) [Example 76, 4-(8-amino-1-(4-((4-cyanopyridin-2-yl)carbamoyl)-2-fluorophenyl)imidazo [1,5-a]pyrazin-3-yl)cubane-1-carboxylic acid]	0.41 nM	666 nM	
CC1(C)[C@@H](c2nc(-c3ccc(C(=O)Nc4cc(C(F)(F)F)ccn4)cc3)c3c(N)nccn23)CC[C@@]1(C)C(=O)O [Example 77, (1R,3S)-3-[8-amino-1-(4-{[4-(trifluoromethyl)pyridin-2-yl]carbamoyl}phenyl)imidazo[1,5-a]pyrazin-3-yl]-1,2,2-trimethylcyclopentane carboxylic acid]	4.6 nM	3920 nM	
CCOc1cc(C(=O)Nc2cc(C(F)(F)F)ccn2)ccc1-c1nc(C2(C)CCC(C)(C(=O)O)CC2)n2ccnc(N)c12 (stereo not shown) [Example 78, 4-[8-amino-1-(2-ethoxy-4-{[4-(trifluoromethyl)pyridin-2-yl]carbamoyl}phenyl)imidazo[1,5-a]pyrazin-3-yl]-1,4-dimethylcyclohexane-carboxylic acid]	1.3 nM	5140 nM	
C[C@@]1(C(=O)O)CC[C@@](C)(c2nc(-c3ccc(C(=O)Nc4cc(C(F)(F)F)ccn4)cc3)c3c(N)nccn23)C1 [Example 79, (1R,3R)-3-[8-amino-1-(4-{[4-(trifluoromethyl)pyridin-2-yl]carbamoyl}phenyl)imidazo[1,5-a]pyrazin-3-yl]-1,3-dimethylcyclopentane carboxylic acid]	0.73 nM	1590 nM	
C[C@]1(C(=O)O)CC[C@@](C)(c2nc(-c3ccc(C(=O)Nc4cc(C(F)(F)F)ccn4)cc3)c3c(N)nccn23)C1 [Example 80, (1S,3R)-3-[8-amino-1-(4-{[4-(trifluoromethyl)pyridin-2-yl]carbamoyl}phenyl)imidazo[1,5-a]pyrazin-3-yl]-1,3-dimethylcyclopentane carboxylic acid]	2.4 nM	9480 nM	
C[C@@]1(C(=O)O)CC[C@](C)(c2nc(-c3ccc(C(=O)Nc4cc(C(F)(F)F)ccn4)cc3)c3c(N)nccn23)C1 [Example 81, (1R.3S)-3-[8-amino-1-(4-{[4-(trifluoromethyl)pyridin-2-yl]carbamoyl}phenyl)imidazo[1,5-a]pyrazin-3-yl]-1,3-dimethylcyclopentane carboxylic acid]	8.2 nM	10000 nM	
CN1CC[C@@H](c2nc(-c3ccc(C(=O)Nc4cc(C(F)(F)F)ccn4)cc3)c3c(N)nccn23)C[C@H]1C(=O)O [Example 82, (2S,4R)-4-[8-amino-1-(4-{[4-(trifluoromethyl)pyridin-2-yl]carbamoyl}phenyl)imidazo[1,5-a]pyrazin-3-yl]-1-methylpiperidine-2-carboxylic acid]	1.2 nM	1730 nM	
CN1CC[C@H](c2nc(-c3ccc(C(=O)Nc4cc(C(F)(F)F)ccn4)cc3)c3c(N)nccn23)C[C@@H]1C(=O)O [Example 83, (2R.4S)-4-[8-amino-1-(4-{[4-(trifluoromethyl)pyridin-2-yl]carbamoyl}phenyl)imidazo[1,5-a]pyrazin-3-yl]-1-methylpiperidine-2-carboxylic acid]	10.2 nM	1140 nM	
CCOc1cc(C(=O)Nc2cc(C(F)(F)F)ccn2)ccc1-c1nc([C@@H]2CC[C@](C)(C(=O)O)C2(C)C)n2ccnc(N)c12 [Example 84, (1S,3R)-3-[8-amino-1-(2-ethoxy-4-{[4-(trifluoromethyl)pyridin-2-yl]carbamoyl}phenyl)imidazo[1,5-a]pyrazin-3-yl]-1,2,2-trimethylcyclopentane carboxylic acid]	0.45 nM	7350 nM	
CCOc1cc(C(=O)Nc2cc(C(F)(F)F)ccn2)ccc1-c1nc([C@]2(C)CC[C@@](C)(C(=O)O)C2)n2ccnc(N)c12 [Example 85, (1R,3R)-3-[8-amino-1-(2-ethoxy-4-{[4-(trifluoromethyl)pyridin-2-yl]carbamoyl}phenyl)imidazo[1,5-a]pyrazin-3-yl]-1,3-dimethylcyclopentane carboxylic acid]	1.4 nM	10000 nM	
CCOc1cc(C(=O)Nc2cc(C(F)(F)F)ccn2)ccc1-c1nc([C@@]2(C)CC[C@@](C)(C(=O)O)C2)n2ccnc(N)c12 [Example 86, (1R,3S)-3-[8-amino-1-(2-ethoxy-4-{[4-(trifluoromethyl)pyridin-2-yl]carbamoyl}phenyl)imidazo[1,5-a]pyrazin-3-yl]-1,3-dimethylcyclopentane carboxylic acid]	4.2 nM	10000 nM	
CCOc1cc(C(=O)Nc2cc(C(F)(F)F)ccn2)ccc1-c1nc([C@]2(C)CC[C@](C)(C(=O)O)C2)n2ccnc(N)c12 [Example 87, (1S,3R)-3-[8-amino-1-(2-ethoxy-4-{[4-(trifluoromethyl)pyridin-2-yl]carbamoyl}phenyl)imidazo[1,5-a]pyrazin-3-yl]-1,3-dimethylcyclopentane carboxylic acid]	13.9 nM	9790 nM	
CCOc1cc(C(=O)Nc2cc(C(F)(F)F)ccn2)ccc1-c1nc([C@@H]2CCC[C@@](C(=O)O)(C(C)C)C2)n2ccnc(N)c12 [Example 88, (1S,3R)-3-[8-amino-1-(2-ethoxy-4-{[4-(trifluoromethyl)pyridin-2-yl]carbamoyl}phenyl)imidazo[1,5-a]pyrazin-3-yl]-1-(1-methylethyl) cyclohexane-carboxylic acid]	38.5 nM	3690 nM	
CCOc1cc(C(=O)Nc2cc(C(F)(F)F)ccn2)ccc1-c1nc([C@H]2CCC[C@](C(=O)O)(C(C)C)C2)n2ccnc(N)c12 [Example 90, (1R,3S)-3-[8-amino-1-(2-ethoxy-4-{[4-(trifluoromethyl)pyridin-2-yl]carbamoyl}phenyl)imidazo[1,5-a]pyrazin-3-yl]-1-(1-methylethyl) cyclohexane-carboxylic acid]	1.8 nM	10000 nM	
CC(C)[C@]1(C(=O)O)CC[C@H](c2nc(-c3ccc(C(=O)Nc4cc(C(F)(F)F)ccn4)cc3Cl)c3c(N)nccn23)C1 [Example 92, (1S,3S)-3-[8-amino-1-(2-chloro-4-{[4-(trifluoromethyl)pyridin-2-yl]carbamoyl}phenyl)imidazo[1,5-a]pyrazin-3-yl]-1-(1-methylethyl) cyclopentane-carboxylic acid]	0.51 nM	3240 nM	
CCOc1cc(C(=O)Nc2cc(C(F)(F)F)ccn2)ccc1-c1nc(C2CC3(CC(C(=O)O)C3)C2)n2ccnc(N)c12 (stereo not shown) [Example 93, 6-[8-amino-1-(2-ethoxy-4-{[4-(trifluoromethyl)pyridin-2-yl]carbamoyl}phenyl)imidazo[1,5-a]pyrazin-3-yl]spiro[3.3]heptane-2-carboxylic acid]	0.51 nM	4640 nM	
CC(C)(C(=O)O)C1CCC(c2nc(-c3ccc(C(=O)Nc4cc(C(F)(F)F)ccn4)cc3)c3c(N)nccn23)C1 (stereo not shown) [Example 94, 2-{3-[8-amino-1-(4-{[4-(trifluoromethyl)pyridin-2-yl]carbamoyl}phenyl)imidazo[1,5-a]pyrazin-3-yl]cyclopentyl}-2-methylpropanoic acid]	1.4 nM		10000 nM

— patent US10087188B2, “Benzamide imidazopyrazine Btk inhibitors” (MERCK SHARP & DOHME CORP., priority 2014, dated 2018)
